In US3966731A, “2-Fluoromethyl-3-o-tolyl-6-amino-4(3H)-quinazolinone” (Tanabe Seiyaku Co., Ltd., priority 1973, dated 1976):

How the values were obtained:
mice [1] = assay: Muscle relaxing activity, traction method (oral, mice); type: in vivo; conditions: Mus musculus, 10, 20 and 30 minutes after dosing
Method: (§1) (A) :Activity examined by the traction method. A drug was administered
(§2) orally to mice. After 10, 20 and 30 minutes of the dosing, the mice were
(§3) suspended by the forepaws to a metallic wire of 1 mm in diameter.
(§4) ED50 of the drug was estimated from the number of mice which fell ou
(§5) of the wire within 10 seconds.

mice [2] = assay: Muscle relaxing activity, inclined plate method (oral, mice); type: in vivo; conditions: Mus musculus, 15, 30 and 45 minutes after dosing, read-out: Muscle relaxing activity ED50 (B)
Method: (§6) (B) :Activity examined by the inclined plate method. A drug was
(§7) administered orally to mice. After 15, 30 and 45 minutes of the dosing,
(§8) the mice were put on the center of a canvas (60 cm in length and 50 cm in
(§9) width) having been set up with an inclination of 60 degrees. ED50 of
(§10) the drug was estimated from the number of mice which slipped down from th
(§11) canvas within one minute.

mice [3] = assay: Muscle relaxing activity, rotating rod method (oral, mice); type: in vivo; conditions: Mus musculus, 0.5 h, 30 minutes after dosing, read-out: Muscle relaxing activity ED50 (C)
Method: (§12) (C) :Activity examined by the rotating rod method. A drug was administere
(§13) orally to mice. After 30 minutes of the dosing, the mice were placed for
(§14) minutes on rotating rods (3.5 cm in diameter, 14 rpm.). ED50 of the
(§15) drug was estimated from the number of mice which fell out of the rods

[4] = Hypnotic activity, loss of righting reflex (oral, mice); therapeutic index; type: in vivo; conditions: mouse, in vivo, mice, oral; for selectivity ratio: po; for TD50: loss of righting reflex for more than 20 seconds in 50 % of the mice, read-out: Side effect: Hypnotic activity HD50 (D)
Method: (§16) (D) :A drug was administered orally to mice. The hypnotic activity of the
(§17) drug was determined by the number of mice which lost righting reflex for
(§18) more than 20 seconds. HD50 of the drug was estimated as the dose
(§19) which was required to produce the losing of righting reflex in 50 % of th
(§20) Therapeutic index and Safety margin: Said index and margin were calculate

[5] = Acute toxicity (oral, mice, 72 hours); safety margin; type: in vivo; conditions: mouse, in vivo, mice, oral; for selectivity ratio: po; for LD50 at 72 h: died 72 hours after dosing, read-out: Side effect: Acute toxicity LD50 (E)
Method: (§21) (E) :A drug was administered orally to mice. The 50 % lethal dose
(§22) (LD50) of the drug was estimated from the number of mice which died
(§23) 72 hours after the dosing.
as §20

[6] = tested on: cardiazol-induced convulsive death in mice; assay: Anti-cardiazol activity, protection from cardiazol-induced convulsive death; type: in vivo; conditions: for ED50: Mus musculus, oral, 125 mg of cardiazol s.c. 30 minutes after dosing, protection at 60 minutes
Method: (§24) The quinazolinone derivative [I] of the present invention has potent tranquilizing, anti-convulsive and analgesic activities. […] On the other hand, when examined under the same condition as above, 200 mg of Mefenamic acid[Chemical name: N-(2,3-xylyl)anthranilic acid] are required to produce 25 % decrease in said carageenin-induced edema.
Anti-cardiazol activity. A drug was administered orally to mice. After 30
minutes of the dosing, 125 mg of cardiazol were injected subcutaneously t
the mice. ED50 of the drug was estimated from the number of mice
which were protected from cardiazol-induced convulsive death 60 minutes
after injection of cardiazol.

[7] = tested on: acetic acid-induced writhings; assay: Analgesic activity, acetic acid-writhing method; type: in vivo, mice; conditions: for ED50: Mus musculus, oral, mice, 1 % acetic acid i.p., 50 % reduction in writhings
Method: as §24
Analgesic activity. One % acetic acid solution was injected
intraperitoneally to mice at the dose of […] after oral
administration of a drug, and the number of writhings per mouse was
counted for 5 minutes starting at 10 minutes after injection of acetic
acid. ED50 of the drug was estimated as the dose which would produce
50 % reduction in acetic acid-induced writhings.

[8] = Japanese patent application No. 81910/1971; cited from earlier work
mice [9] = assay: Hypnotic activity, loss of righting reflex (oral, mice); therapeutic index; type: in vivo; conditions: for hypnotic activity (side effect), in words: mouse, in vivo
Method: as §16, §17, §18, §19, §20

mice [10] = assay: Central muscle relaxing activity (Table 1, traction, inclined plate and rotating rod methods together); conditions: mouse, in vivo
Method: as §1, §2, §3, §4, §5, §6, §7, §8, §9, §10, §11, §12, §13, §14, §15

[11] = Arzneimittel Forshung 21(1971), 238-243; U.S. Pat. No. 3317388; cited from earlier work
mice [12] = assay: Acute toxicity (oral, mice, 72 hours); safety margin; type: in vivo; conditions: vs 2-methyl-3-(o-tolyl)-6-amino-4(3H)-quinazolinone; ratio of muscle relaxing activity to acute toxicity
Method: as §21, §22, §23, §20

carageenin-induced edema = assay: Anti-inflammatory activity, carageenin-induced edema; type: in vivo, rats
Method: as §24
Anti-inflammatory activity. A drug was administered orally to rats at the
dose of 30 mg/kg. To the control group was administered orally a
physiological saline solution. After one hour, one % carageenin solution
was injected subcutaneously to the rats through planta of hind legs at th
dose of 0.5 ml/rat. Then, the volume of the hind legs in the control and
medicated groups were measured at 3 hours after injection of carageenin,
and the preventive effect (%) of the drug against carageenin-induced edem
was calculated therefrom.

[13] = Tranquilizing activity (no method given); conditions: in vivo
[14] = HD50 / ED50 inclined plate method, read-out: Therapeutic index D/B
[15] = HD50 / ED50 rotating rod method, read-out: Therapeutic index D/C
[16] = HD50 / ED50 traction method, read-out: Therapeutic index D/A
[17] = LD50 / ED50 inclined plate method, read-out: Safety margin E/B
[18] = LD50 / ED50 rotating rod method, read-out: Safety margin E/C
[19] = LD50 / ED50 traction method, read-out: Safety margin E/A

Row | SMILES | ED50 (mice [1]) | ED50 (mice [2]) | ED50 (mice [3]) | selectivity ratio [4, 14] | selectivity ratio [4, 15] | selectivity ratio [4, 16] | TD50 [4] | selectivity ratio [5, 17] | selectivity ratio [5, 18] | selectivity ratio [5, 19] | LD50 at 72 h [5] | ED50 ([6]; mice) | ED50 [7] | hypnotic activity (side effect), in words (mice [9]) | other results
1 | Cc1ccccc1-n1c(CF)nc2ccccc2c1=O [2-fluoromethyl-3-(o-tolyl)-4(3H)-quinazolinone] | 138 mg/kg | 58.9 mg/kg | 67.5 mg/kg | 1.48 | 1.29 | 0.63 | 87.3 mg/kg | 12.1 | 10.5 | 5.1 | 710 mg/kg | 56.1 mg/kg | 42.1 mg/kg |  | hypnotic use, in words (Inoue et al) [8]: useful as hypnotic agents
2 | CN1C(=O)CCS(=O)(=O)C1c1ccc(Cl)cc1 (stereo not drawn) [Chlormezanone, 2-(p-chlorophenyl)tetrahydro-3-methyl-4H-1,3-thiazin-4-one 1,1-dioxide] | 208 mg/kg | 156 mg/kg | 222 mg/kg | 2.47 | 1.74 | 1.86 | 386 mg/kg | 8.6 | 6.1 | 6.5 | 1340 mg/kg | 28.8 mg/kg | 258 mg/kg | potent hypnotic activity | 
3 | Cc1ccccc1-n1c(C)nc2ccc(N)cc2c1=O [2-methyl-3-(o-tolyl)-6-amino-4(3H)-quinazolinone] | 24 mg/kg | 22.5 mg/kg | 22.5 mg/kg |  |  |  | 33.7 mg/kg |  |  |  |  | 16.9 mg/kg | 10 mg/kg |  | muscle relaxing activity, in words (mice [10]): relatively strong muscle relaxing activity; muscle relaxing activity, in words (Breuer et al) [11]: shows a muscle relaxing activity
4 | Cc1ccccc1-n1c(CF)nc2ccc(N)cc2c1=O [quinazolinone derivative [I], 2-fluoromethyl-3-(o-tolyl)-6-amino-4(3H)-quinazolinone] | 20.7 mg/kg | 19.3 mg/kg | 22.4 mg/kg | 2.75 | 2.37 | 2.57 | 53.1 mg/kg | 27.4 | 23.6 | 25.5 | 528 mg/kg | 15.7 mg/kg | 11.8 mg/kg | relatively less hypnotic activity | therapeutic index, times superior to Chlormezanone (mice [9]; vs Chlormezanone, ratio of muscle relaxing to hypnotic activity): about 2 times; therapeutic index, times superior to Mephenesin (mice [9]; vs Mephenesin, ratio of muscle relaxing to hypnotic activity): about 2 times; safety margin, times superior to 2-methyl-3-(o-tolyl)-6-amino-4(3H)-quinazolinone (mice [12]): about 7 times; anti-convulsive activity, in words ([6]; mouse, in vivo): potent; anti-cardiazol activity, times superior to 2-fluoromethyl-3-(o-tolyl)-4(3H)-quinazolinone ([6]; vs 2-fluoromethyl-3-(o-tolyl)-4(3H)-quinazolinone, mice): 3.6 times; anti-cardiazol activity, times superior to 2-methyl-3-(o-tolyl)-6-amino-4(3H)-quinazolinone ([6]; vs 2-methyl-3-(o-tolyl)-6-amino-4(3H)-quinazolinone, mice): 1.1 times; anti-cardiazol activity (ED50), times superior to Chlormezanone ([6]; vs Chlormezanone, mice): about 2 times; analgesic activity (ED50) compared with Chlormezanone ([7]; acetic acid-writhing method, in words): apparently stronger than that of Chlormezanone; analgesic activity, in words ([7]; mouse, in vivo): potent; Anti-inflammatory activity: preventive effect (%) against carageenin-induced edema (carageenin-induced edema; oral, rats, 30 mg/kg, 3 hours after carageenin): 28%; anti-inflammatory activity, in words (carageenin-induced edema; rat, in vivo): potent anti-inflammatory activity; tranquilizing activity, in words [13]: potent
5 | Cc1ccccc1OCC(O)CO (stereo not drawn) [Mephenesin, 3-(o-tolyloxy)-1,2-propanediol] | 527 mg/kg | 551 mg/kg | 498 mg/kg | 1.5 | 1.66 | 1.56 | 824 mg/kg | 3.7 | 4.1 | 3.8 | 2020 mg/kg | 600 mg/kg |  | potent hypnotic activity | 
6 | Cc1ccccc1-n1c(CF)nc2ccc([N+](=O)[O-])cc2c1=O [2-fluoromethyl-3-(o-tolyl)-6-nitro-4(3H)-quinazolinone] | > 100 mg/kg | > 100 mg/kg | > 100 mg/kg |  |  |  | > 100 mg/kg |  |  |  |  |  |  |  | hypnotic use, in words (Inoue et al) [8]: useful as hypnotic agents
7 | Cc1cccc(Nc2ccccc2C(=O)O)c1C [Mefenamic acid, N-(2,3-xylyl)anthranilic acid] |  |  |  |  |  |  |  |  |  |  |  |  |  |  | decrease in carageenin-induced edema (carageenin-induced edema; 200 mg of Mefenamic acid required, same condition (oral, rats)): 25%
